Measured values as given in the CheMixHub ionic liquid set.
Several values for one entry are separate records, joined by “and”; a condition that tells them apart may be missing. Equal values may be shown once.

Test: xn = mol fraction of the nth substance listed

CC(CC(C)(C)C)CP(=O)([O-])CC(C)CC(C)(C)C.CCCCCCCCCCCCCC[P+](CCCCCC)(CCCCCC)CCCCCC + O
100 kPa
Conditions	viscosity [mPa·s]
298.15 K, x1 = 0.1299	139
323.15 K, x1 = 0.7943	264

CCCCCCCC(=O)[O-].CCCCCC[NH+](CCCCCC)CCCCCC + O
298.15 K, 101 kPa
Conditions	viscosity
x1 = 0.3915	15.08 mPa·s and 15.76 mPa·s
x1 = 0.7748	20.5 mPa·s and 21.52 mPa·s

CCCC[P+](C)(CCCC)CCCC.COS(=O)(=O)[O-] + O
Conditions	viscosity [mPa·s]
298.15 K, 100 kPa, x1 = 0.004192	1.135

CCCC[n+]1ccn(C)c1.O=S(=O)([N-]S(=O)(=O)C(F)(F)F)C(F)(F)F + O
Conditions	electrical conductivity [S/m]	viscosity [mPa·s]
298 K, 101 kPa, x2 = 0	–	50.4
298 K, 101 kPa, x2 = 0.0227	0.427	–
298 K, 101 kPa, x2 = 0.0272	0.442	–
298 K, 101 kPa, x2 = 0.0915	0.472	–
298 K, 101 kPa, x2 = 0.1024	0.498	–
333.15 K, 100 kPa, x2 = 0.257	–	10.68
343.15 K, 100 kPa, x2 = 0.257	–	8.479
353.15 K, 100 kPa, x2 = 0.257	–	6.903

CCn1cc[n+](C)c1.COCCOCCOS(=O)(=O)[O-] + O
101 kPa
Conditions	electrical conductivity [S/m]
298.2 K, x2 = 0.4	0.3
298.2 K, x2 = 0.6	0.51
313.2 K, x2 = 0.2	0.46
313.2 K, x2 = 0.8	1.63
328.2 K, x2 = 0.4	0.92
338.2 K, x2 = 0.2	1.05
338.2 K, x2 = 0.6	1.77
338.2 K, x2 = 0.8	2.97
343.2 K, x2 = 0.8	3.28
348.2 K, x2 = 0.2	1.36
348.2 K, x2 = 0.4	1.51
353.2 K, x2 = 0.6	2.39
353.2 K, x2 = 0.8	3.93

COC[n+]1ccccc1.O=S(=O)([N-]S(=O)(=O)C(F)(F)F)C(F)(F)F + O
101 kPa, x1 = 0.8483
Conditions	electrical conductivity [S/m]	viscosity [mPa·s]
298.1 K	–	37.4
298.15 K	0.608	–
303 K	–	30.6
333 K	–	12

CCCC[n+]1ccn(C)c1.F[P-](F)(F)(F)(F)F + O=C1CCCC1
Conditions	viscosity [mPa·s]
298.15 K, 101.3 kPa, x2 = 0	270

CCCC[n+]1ccn(C)c1.O=S(=O)([N-]S(=O)(=O)C(F)(F)F)C(F)(F)F + O=C1CCCCCO1
100 kPa, frequency 0.01 MHz, x1 = 1
Conditions	electrical conductivity [S/m]
293.15 K	0.337
298.15 K	0.4
303.15 K	0.472
308.15 K	0.552
313.15 K	0.64
318.15 K	0.733
323.15 K	0.835

CCCC[n+]1ccn(C)c1.O=S(=O)([N-]S(=O)(=O)C(F)(F)F)C(F)(F)F + O=C1CCCCO1
100 kPa, frequency 0.01 MHz, x1 = 1
Conditions	electrical conductivity [S/m]
298.15 K	0.4
318.15 K	0.733

CCCC[n+]1ccn(C)c1.O=S(=O)([N-]S(=O)(=O)C(F)(F)F)C(F)(F)F + O=C1CCCO1
100 kPa, x2 = 0
Conditions	electrical conductivity [S/m]	viscosity [mPa·s]
298.15 K	0.4	50
303.15 K	0.472	41.24

CC[n+]1ccn(C)c1.O=S(=O)([O-])O + O=C1O[C@H]([C@@H](O)CO)C(O)=C1O + O
viscosity [mPa·s], 100 kPa
Conditions	293.15 K	298.15 K	303.15 K	308.15 K	313.15 K	318.15 K
x2 = 0, x1 = 0.0009002	1.05	0.94	0.84	0.76	0.69	0.65
x2 = 0, x1 = 0.001799	1.07	0.95	0.85	0.77	0.7	0.64
x2 = 0, x1 = 0.002696	1.08	0.96	0.86	0.78	0.71	0.64
x2 = 0.0002713, x1 = 0.0008999	1.05	0.95	0.84	0.76	0.7	0.65
x2 = 0.0002768, x1 = 0.001798	1.08	0.96	0.86	0.78	0.71	0.65
x2 = 0.000277, x1 = 0.002695	1.09	0.97	0.87	0.78	0.72	0.65
x2 = 0.0005469, x1 = 0.0008997	1.06	0.96	0.85	0.77	0.71	0.66
x2 = 0.0005489, x1 = 0.001798	1.08	0.96	0.87	0.78	0.72	0.66
x2 = 0.0005544, x1 = 0.002694	1.1	0.98	0.88	0.79	0.72	0.66
x2 = 0.0008183, x1 = 0.0008994	1.07	0.96	0.85	0.78	0.71	0.67
x2 = 0.0008262, x1 = 0.001797	1.09	0.97	0.87	0.79	0.72	0.66
x2 = 0.000834, x1 = 0.002693	1.1	0.98	0.88	0.8	0.73	0.67
x2 = 0.00109, x1 = 0.0008992	1.07	0.97	0.86	0.78	0.72	0.67
x2 = 0.0011, x1 = 0.001797	1.09	0.97	0.88	0.8	0.73	0.67
x2 = 0.00111, x1 = 0.002693	1.11	0.99	0.89	0.8	0.73	0.67
x2 = 0.001362, x1 = 0.000899	1.08	0.97	0.86	0.79	0.72	0.68
x2 = 0.001374, x1 = 0.001796	1.1	0.98	0.88	0.8	0.73	0.67
x2 = 0.00139, x1 = 0.002692	1.11	1	0.89	0.81	0.74	0.68
x2 = 0.001633, x1 = 0.0008987	1.09	0.98	0.87	0.79	0.73	0.68
x2 = 0.001648, x1 = 0.001796	1.11	0.98	0.89	0.81	0.74	0.68
x2 = 0.001666, x1 = 0.002691	1.12	1	0.9	0.81	0.75	0.68
x2 = 0.001906, x1 = 0.0008985	1.09	0.98	0.88	0.8	0.73	0.69
x2 = 0.001923, x1 = 0.001795	1.11	0.99	0.9	0.81	0.74	0.68
x2 = 0.001942, x1 = 0.00269	1.12	1.01	0.9	0.82	0.75	0.69

CC[n+]1ccn(C)c1.O=S(=O)([O-])O + O=C([O-])CC(O)(CC(=O)[O-])C(=O)[O-].[Li+].[Li+].[Li+] + O
viscosity [mPa·s], 101 kPa
Conditions	293.15 K	298.15 K	303.15 K	308.15 K	313.15 K
x2 = 0, x1 = 0.0006645	1.023	0.93	0.823	0.75	0.674
x2 = 0, x1 = 0.0007293	1.036	0.943	0.825	0.749	0.689
x2 = 0, x1 = 0.0009254	1.064	0.943	0.844	0.763	0.683

CC[n+]1ccn(C)c1.O=S(=O)([O-])O + O=C([O-])CC(O)(CC(=O)[O-])C(=O)[O-].[NH4+].[NH4+].[NH4+] + O
viscosity [mPa·s], 101 kPa
Conditions	293.15 K	298.15 K	303.15 K	308.15 K	313.15 K
x2 = 0, x1 = 0.0006645	1.023	0.93	0.823	0.75	0.674
x2 = 0, x1 = 0.0007293	1.036	0.943	0.825	0.749	0.689
x2 = 0, x1 = 0.0009254	1.064	0.943	0.844	0.763	0.683
x2 = 0.0007784, x1 = 0.0007287	1.08	0.994	0.875	0.801	0.743
x2 = 0.0007964, x1 = 0.0009246	1.11	0.994	0.895	0.815	0.737
x2 = 0.000825, x1 = 0.0006639	1.07	0.983	0.877	0.803	0.727
x2 = 0.001056, x1 = 0.0007285	1.096	1.005	0.886	0.813	0.756
x2 = 0.001057, x1 = 0.0006638	1.083	0.992	0.886	0.813	0.737
x2 = 0.001176, x1 = 0.0009243	1.133	1.008	0.911	0.832	0.755
x2 = 0.001406, x1 = 0.0009241	1.146	1.017	0.919	0.841	0.765
x2 = 0.001588, x1 = 0.0007281	1.126	1.024	0.906	0.834	0.779
x2 = 0.001621, x1 = 0.0006634	1.115	1.012	0.906	0.835	0.761
x2 = 0.001717, x1 = 0.0006634	1.12	1.015	0.91	0.839	0.764
x2 = 0.001746, x1 = 0.000728	1.135	1.029	0.911	0.84	0.786
x2 = 0.001804, x1 = 0.0009237	1.169	1.03	0.934	0.857	0.782
x2 = 0.002295, x1 = 0.0009233	1.198	1.047	0.951	0.876	0.803
x2 = 0.002321, x1 = 0.0007276	1.168	1.048	0.931	0.861	0.809
x2 = 0.002323, x1 = 0.000663	1.155	1.034	0.93	0.86	0.787
x2 = 0.002686, x1 = 0.0007273	1.189	1.059	0.943	0.874	0.824
x2 = 0.002704, x1 = 0.0006627	1.176	1.046	0.942	0.873	0.801
x2 = 0.002709, x1 = 0.0009229	1.223	1.06	0.965	0.891	0.82

CCCC[P+](CCCC)(CCCC)CCCC.[O-]c1ccccn1 + O=C=O
Conditions	viscosity [mPa·s]
293 K, 101 kPa, x2 = 0.5475	474

CCCCC[P+](CC)(CC)CC.O=S(=O)([N-]S(=O)(=O)C(F)(F)F)C(F)(F)F + O=S(=O)([N-]S(=O)(=O)C(F)(F)F)C(F)(F)F.[Li+]
101.33 kPa
Conditions	electrical conductivity [S/m]	viscosity [mPa·s]
300.3 K, x2 = 0.39	–	1100
324.2 K, x2 = 0.39	0.081	200
330.2 K, x2 = 0.39	0.11	150
336.3 K, x2 = 0.25	0.37	42
341.2 K, x2 = 0.25	–	34
348.2 K, x2 = 0.25	0.52	27
361.2 K, x2 = 0.39	–	37
361.3 K, x2 = 0.39	0.36	–
